From patent US10966995B2, “Use of secoisolariciresinol diglucosides (SDGS) and related compounds for protection against radiation and chemical damage” (THE TRUSTEES OF THE UNIVERSITY OF PENNSYLVANIA, priority 2014, dated 2021)
pEC50: −log10 of the molar value.

Assays:
[1] = system: murine primary lung epithelial cells; experiment: γ-H2AX foci immunostaining, epithelial cells; format: cell-based, mouse; settings: SDG 50 μM 6 h prior IR; 2 Gy; irradiated control 46.7% at 30 min
Description: (§1) Fibroblasts and endothelial cells were isolated from C57/bl6 mouse. For fibroblast isolation, mouse lungs were harvested, minced, and incubated with dispase (2 mg/ml) for 45 minutes. Pieces were plated out and fibroblasts were cultured as described previously and used between passages 3 and 10. Pulmonary microvascular endothelial cells (PMVEC) were isolated from murine lungs as described previously. Briefly, freshly harvested mouse lungs were treated with collagenase followed by isolation of cells by adherence to magnetic beads coated with mAb to platelet endothelial cell adhesion molecule (PECAM). Epithelial cells (C10) cells were originally derived from a normal BALB/c mouse lung explant and are non-tumorigenic, contact-inhibited, and have alveolar type 2 cell features at early passage.
(§2) For immunostaining of γ-H2AX, cells were plated on glass coverslips (5,000 cells/coverslip), pre-treated (6 h) with 50 μM SDG and irradiated (2 Gy). At desired time interval, cells were fixed (4% para-formaldehyde), washed and blocked with PBST (PBS+0.1% TritonX-100 containing 5% goat serum, 1% BSA). Cells were incubated with γ-H2AX primary antibody (1:200) overnight at 4° C. followed by washing with PBST (3×5 min) and incubation with secondary antibody (Alexa Fluor® 488, Invitrogen, Calif., USA) for 1 hr at RT. Nuclei were counterstained with DAPI and visualized under fluorescence microscope.

[2] = typical range, earlier work; read-out: EC50 values for free radical scavenging and antioxidant effects; cited from earlier work
[3] = system: murine primary lung endothelial cells; experiment: Morphological detection of apoptotic cells, endothelial cells; format: cell-based, mouse; settings: SDG 50 μM pre-treatment; irradiated; 24 h; IR alone 15.1%
Description: as §1, with “Epithelial cells (C10) cells were originally derived from a normal BALB/c mouse lung explant and are non-tumorigenic, contact-inhibited, and have alveolar type 2 cell features at early passage.” left out
Apoptotic cells are morphologically characterized by condensation of nucleus and cytoplasm, membrane blebbing, cell shrinkage, and breakdown of nuclear DNA, first in large segments and subsequently in nucleosomal fragments and finally formation of well-enclosed apoptotic bodies. Percentage of cells undergoing apoptosis was determined microscopically from the slides used for micronuclei detection (cytogenetic damage). At least, 500 cells were counted for each experiment (experiment done twice) and percent apoptotic cells were determined as follows: % Cell Death=Na/Nt×100, where Na is the number of cells with apoptotic bodies and Nt is the total number of cells analyzed. Gene Expression Analysis by Quantitative Real Time PCR (qPCR)

[4] = system: murine primary lung cells (epithelial cells, endothelial cells and WT fibroblasts); experiment: γ-H2AX flow cytometry (FACS) in irradiated primary lung cells; format: cell-based, mouse; settings: SDG 50 μM 6 h pre-treatment; 2 Gy; all cell types
Description: as §1
For FACS analysis, cells were trypsinized and washed with PBS. Cells were then fixed (Fix/Perm buffer, eBioscience), for 45 minutes and washed thereafter using permeabilization wash buffer (BioLegend, USA). […] Cells were washed again with wash buffer and analyzed. The CyAn ADP (Advanced Digital Processing) flow cytometer (Dako, Denmark) Coulter, Fullerton, Calif.) was used to measure γ-H2AX and positive cells were quantified using Summit Software (Dako, Denmark).

plasmid DNA = experiment: Hypochlorite-induced damage to plasmid DNA; format: biochemical; settings: SDG 25 μM; 4.5 mM HOCl
Description: Calf thymus or plasmid DNA was incubated with hypochlorite for 2 hrs at 37° C. DNA samples were subjected to agarose (1%) gel electrophoresis and analyzed.

human mesothelial cells = experiment: Asbestos-induced ROS (DCF fluorescence) in human mesothelial cells; format: cell-based; settings: asbestos 10 μg crocidolite/cm^2 or H2O2 100 μM; SDG 50 μM
Description: (§3) SDG blunts asbestos-induced ROS secretion by human mesothelial cells in vitro (FIG. 50). Experimental plan for detecting asbestos-induced ROS in cells: (human mesothelial) HM cells or mouse macrophages plated in 20% DMEM for 24 hours; Added 20 μM DCF in HBSS for 1 hour; Supernatant replaced with 1% DMEM containing H2O2 (100 μM), asbestos (10 μg crocidolite/cm^2) and/or SDG (50 μM); and Fluorescence level monitored up to 36 hours post-initiation of asbestos exposure.

human epithelial cells [5] = experiment: BaP-induced genotoxic stress (p53 protein levels); format: cell-based; settings: SDG 5, 10, 25 and 50 μM
From the text: (§4) Similarly, SDG prevents genotoxic stress in human epithelial cells exposed to BaP. Exposure of cells to a potent carcinogen such as BaP, induces genotoxic stress as indicated by increased levels of p53 protein (FIG. 25). […] SDG also prevents oxidative DNA damages in human epithelial cells exposed to BaP. Exposure of cells to a potent carcinogen such as BaP, induces oxidative DNA damage as indicated by increased levels of gamma-H2AX, a marker for double-stranded DNA breaks (FIG. 26). […] Furthermore, SDG prevents DNA adduct formation in human epithelial cells exposed to BaP. Exposure of cells to a potent carcinogen such as BaP, induces the formation of DNA adducts (FIG. 27). DNA adducts are pieces of DNA covalently linked to a carcinogen and is directly linked to the development of malignancy. The DNA adduct levels is decreased by the presence of SDG or its metabolites ED and EL given alone or in combination.

human epithelial cells [6] = experiment: BaP-induced DNA adduct formation; format: cell-based; settings: given alone or in combination
From the text: as §4

[7] = system: murine primary lung endothelial cells; experiment: γ-H2AX foci immunostaining, endothelial cells; format: cell-based, mouse; settings: SDG 50 μM 6 h prior IR; 2 Gy; irradiated control 33.6% at 30 min
Description: as §1, §2

mouse RAW macrophages = experiment: Asbestos-induced ROS in RAW macrophages; format: cell-based
Description: as §3
Asbestos-Induced Oxidative Stress (ROS release) in Culture RAW Macrophages was evaluated. Cells were treated with the ROS-sensitive dye H2DCFDA for 30 min and then they were exposed to vehicle to 40 μg/cm2 asbestos fibers, or 4 uM hypochlorite solution and fluorescence intensity was measured spectrophotometrically for 90, 150 minutes and 27 hours. Asbestos-induced ROS was generated shortly post asbestos exposure and continued for the duration of the observation period (FIG. 51).

COc1cc(C[C@@H](CO[C@@H]2O[C@H](CO)[C@@H](O)[C@H](O)[C@H]2O)[C@H](CO[C@@H]2O[C@H](CO)[C@@H](O)[C@H](O)[C@H]2O)Cc2ccc(O)c(OC)c2)ccc1O [SDG, secoisolariciresinol diglucoside]
γ-H2AX positive cells [1]: 22.7%±2.17 | pEC50 [2]: 3.70 to 3.89 | Apoptotic cells [3]: 10.71%±1.45 | Number of γ-H2AX positive cells (flow cytometry) [4]: significantly abrogated | Open coiled (OC) form of plasmid DNA (plasmid DNA): 18.6%±9.4 | Super coiled (SC) form of plasmid DNA (plasmid DNA): 81.3%±9.4 | ROS levels (human mesothelial cells): significantly lowers ROS levels to baseline levels | p53 protein levels (genotoxic stress) (human epithelial cells [5]): mitigated dose-dependently | DNA adduct levels (human epithelial cells [6]): decreased | γ-H2AX positive cells [7]: 21.92%±2.88 | Asbestos-induced ROS (mouse RAW macrophages): blocks asbestos-induced ROS
